# From the supplement of paper PMC11208160
# Assay: recombinant barcode read abundance after kanamycin selection (control-corrected) (log10(CPM+1)); higher = more efficient recombination; sequences stand for … in AGTGCAGAGAAAATCGGCCAGTTTTCTCTGCCTGCAGTCCGCATGCCGT…AGATTTATGCAGCGGACTGCCTTTCTCCCAAAGTGATAAACCGGACAGTATCATGGACCGGTTTTCCCGGTAATCCGTATTTGCAAGGTTGGTTTCACT; site = the 11-nt target
# In short: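 The screen was pooled in E. coli and paired targets with IS621 bridge RNA target-binding loops. Recombination efficiency is taken from barcode counts per million at recombinant junctions, averaged and adjusted against the control. Values, in the form log10(CPM+1), come from duplicate plating on chloramphenicol/ampicillin LB agar or on chloramphenicol/ampicillin/kanamycin with 0.1 mM IPTG.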
# 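Further: IS621 recombinase and bridge RNA in Escherichia coli cells.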
row,Sequence,recombinant barcode read abundance (log10)
1,TTACCGACTTGGGTTCTAACCTGTTGCCT (site TTACCCACTAG),0.242
2,TTACCGACTTGGGTTCTAACCTGTTGCCT (site TTACCGACTAG),2.33
3,TTACCGACTTGGGTTCTAACCTGTTGCCT (site TTACCTACTAG),0.0567
4,TTACGTCCTTGGGTTCTAACCTGTTGCGG (site TCACGTCCTCC),1.31
5,TTACGTCCTTGGGTTCTAACCTGTTGCGG (site TTACGTCCTCC),1.74
6,TTAGACCCTTGGGTTCTAACCTGTTGCAG (site AGGTCTACTTG),0.0942
7,TTAGACCCTTGGGTTCTAACCTGTTGCAG (site TTAGACCCTCT),3.46
8,TTAGACCCTTGGGTTCTAACCTGTTGCCT (site ATAGACCCTAG),1.3
9,TTAGACCCTTGGGTTCTAACCTGTTGCCT (site CTAGACCCTAG),1.11
10,TTAGACCCTTGGGTTCTAACCTGTTGCCT (site GTAGACCCTAG),0.341
11,TTAGACCCTTGGGTTCTAACCTGTTGCCT (site TTAGACCCTAG),2.99
12,TTAGACTCTTGGGTTCTAACCTGTTGCCT (site TTAGACTCTAG),2.48
13,TTAGACTCTTGGGTTCTAACCTGTTGCCT (site TTCGACGCTAG),0.172
14,TTAGACTCTTGGGTTCTAACCTGTTGCTA (site TTAGACTCTTA),2.36
15,TTAGACTCTTGGGTTCTAACCTGTTGCTA (site TTAGACTCTTG),1.25
16,TTAGAGACTTGGGTTCTAACCTGTTGCCT (site TTAGAGACTAG),2.32
17,TTAGAGACTTGGGTTCTAACCTGTTGCCT (site TTAGAGCCTAG),0.303
18,TTAGAGACTTGGGTTCTAACCTGTTGCCT (site TTAGAGGCTAG),1.4
19,TTAGAGACTTGGGTTCTAACCTGTTGCCT (site TTAGAGTCTAG),0.195
20,TTAGATCCTTGGGTTCTAACCTGTTGCAT (site TTAGATCCTAT),1.62
21,TTAGATCCTTGGGTTCTAACCTGTTGCAT (site TTAGGTCCTCT),0.00789
22,TTAGGGCCTTGGGTTCTAACCTGTTGCCT (site TTAGGGACTAG),0.0406

row,Sequence,recombinant barcode read abundance (log10)
1,TTAGGGCCTTGGGTTCTAACCTGTTGCCT (site TTAGGGCCTAG),0.719
2,TTAGGGCCTTGGGTTCTAACCTGTTGCCT (site TTAGGGGCTAG),0.0469
3,TTAGGGCCTTGGGTTCTAACCTGTTGCCT (site TTAGGGTCTAG),0.0494
4,TTAGGTCCTTGGGTTCTAACCTGTTGCTT (site TTAAGTCCTAT),0.357
5,TTAGGTCCTTGGGTTCTAACCTGTTGCTT (site TTAGGTCCTAA),1.64
6,TTAGTAGCTTGGGTTCTAACCTGTTGCCT (site TTAGTAGCTAG),1.84
7,TTAGTAGCTTGGGTTCTAACCTGTTGCCT (site TTAGTCGCTAG),0.0769
8,TTAGTAGCTTGGGTTCTAACCTGTTGCCT (site TTAGTGGCTAG),0.0632
9,TTAGTAGCTTGGGTTCTAACCTGTTGCCT (site TTAGTTGCTAG),0.0874
10,TTAGTCCCTTGGGTTCTAACCTGTTGCCT (site TTAGTACCTAG),0.113
11,TTAGTCCCTTGGGTTCTAACCTGTTGCCT (site TTAGTCCCTAG),2.42
12,TTAGTCCCTTGGGTTCTAACCTGTTGCCT (site TTAGTGCCTAG),0.202
13,TTAGTCCCTTGGGTTCTAACCTGTTGCCT (site TTAGTTCCTAG),0.0847
14,TTAGTGGCTTGGGTTCTAACCTGTTGCCT (site TTAGTAGCTAG),0.607
15,TTAGTGGCTTGGGTTCTAACCTGTTGCCT (site TTAGTCGCTAG),0.0499
16,TTAGTGGCTTGGGTTCTAACCTGTTGCCT (site TTAGTGGCTAG),0.978
17,TTAGTGGCTTGGGTTCTAACCTGTTGCCT (site TTAGTTGCTAG),0.0338
18,TTATCCGCTTGGGTTCTAACCTGTTGCCT (site CGTAGACCTTA),0.0341
19,TTATCCGCTTGGGTTCTAACCTGTTGCCT (site TTATCCGCTAG),1.77
20,TTATCTCCTTGGGTTCTAACCTGTTGCTT (site TCGTCTCCTAA),0.0381
21,TTATCTCCTTGGGTTCTAACCTGTTGCTT (site TTATCTCCTAA),0.205
22,TTCAAAACTTGGGTTCTAACCTGTTGCCT (site TTCAAAACTAG),0.103

row,Sequence,recombinant barcode read abundance (log10)
1,TTCAAAACTTGGGTTCTAACCTGTTGCCT (site TTCAAACCTAG),0.0651
2,TTCAAAACTTGGGTTCTAACCTGTTGCCT (site TTCAAAGCTAG),0.0504
3,TTCAAAACTTGGGTTCTAACCTGTTGCCT (site TTCAAATCTAG),0.0229
4,TTCAAAGCTTGGGTTCTAACCTGTTGCCT (site TTCAAAACTAG),0.0225
5,TTCAAAGCTTGGGTTCTAACCTGTTGCCT (site TTCAAACCTAG),0.0449
6,TTCAAAGCTTGGGTTCTAACCTGTTGCCT (site TTCAAAGCTAG),0.0407
7,TTCAAAGCTTGGGTTCTAACCTGTTGCCT (site TTCAAATCTAG),0.0721
8,TTCACAGCTTGGGTTCTAACCTGTTGCCT (site TTCACACCTAG),0.0537
9,TTCACAGCTTGGGTTCTAACCTGTTGCCT (site TTCACAGCTAG),0.133
10,TTCACGCCTTGGGTTCTAACCTGTTGCCT (site TTCACGCCTAG),0.187
11,TTCACGCCTTGGGTTCTAACCTGTTGCCT (site TTCCCGCCTAG),0.127
12,TTCACGCCTTGGGTTCTAACCTGTTGCCT (site TTCGCGCCTAG),0.0353
13,TTCACGCCTTGGGTTCTAACCTGTTGCCT (site TTCTCGCCTAG),0.214
14,TTCACGGCTTGGGTTCTAACCTGTTGCCT (site TTAACGGCTAG),0.223
15,TTCACGGCTTGGGTTCTAACCTGTTGCCT (site TTCACGGCTAG),0.0164
16,TTCCAATCTTGGGTTCTAACCTGTTGCCA (site TGCCAATCTAG),0.0654
17,TTCCAATCTTGGGTTCTAACCTGTTGCCA (site TTCCAATCTTG),0.713
18,TTCCCCACTTGGGTTCTAACCTGTTGCCT (site AATATAGCTTA),0.115
19,TTCCCCACTTGGGTTCTAACCTGTTGCCT (site TTCCCCACTAG),1.11
20,TTCCCGCCTTGGGTTCTAACCTGTTGCCT (site TTCACGCCTAG),0.0618
21,TTCCCGCCTTGGGTTCTAACCTGTTGCCT (site TTCCCGCCTAG),0.543
22,TTCCCGCCTTGGGTTCTAACCTGTTGCCT (site TTCGCGCCTAG),0.489

row,Sequence,recombinant barcode read abundance (log10)
1,TTCCCGCCTTGGGTTCTAACCTGTTGCCT (site TTCTCGCCTAG),0.155
2,TTCCGAGCTTGGGTTCTAACCTGTTGCGG (site TGTCGAGCTCC),0.0848
3,TTCCGAGCTTGGGTTCTAACCTGTTGCGG (site TTCCGAGCTCC),1.01
4,TTCGAAACTTGGGTTCTAACCTGTTGCGT (site TCCGAGACTAC),0.221
5,TTCGAAACTTGGGTTCTAACCTGTTGCGT (site TTCGAAACTAC),1.46
6,TTCGCATCTTGGGTTCTAACCTGTTGCTT (site CCAAGGCCTCG),0.209
7,TTCGCATCTTGGGTTCTAACCTGTTGCTT (site TTCGCATCTAA),0.178
8,TTCGTAGCTTGGGTTCTAACCTGTTGCCT (site TTCGTAGCTAC),0.0736
9,TTCGTAGCTTGGGTTCTAACCTGTTGCCT (site TTCGTAGCTAG),1.22
10,TTCGTTGCTTGGGTTCTAACCTGTTGCCT (site ATCGTTGCTAG),0.0494
11,TTCGTTGCTTGGGTTCTAACCTGTTGCCT (site CTCGTTGCTAG),0.41
12,TTCGTTGCTTGGGTTCTAACCTGTTGCCT (site GTCGTTGCTAG),0.0105
13,TTCGTTGCTTGGGTTCTAACCTGTTGCCT (site TTCGTTGCTAG),0.302
14,TTCTAGACTTGGGTTCTAACCTGTTGCGG (site TCCTAGACTCC),0.189
15,TTCTAGACTTGGGTTCTAACCTGTTGCGG (site TTCTAGACTCC),1.94
16,TTCTATCCTTGGGTTCTAACCTGTTGCCT (site TTCTATCCTAG),0.486
17,TTCTATCCTTGGGTTCTAACCTGTTGCCT (site TTCTCTCCTAG),0.286
18,TTCTATCCTTGGGTTCTAACCTGTTGCCT (site TTCTGTCCTAG),0.0469
19,TTCTATCCTTGGGTTCTAACCTGTTGCCT (site TTCTTTCCTAG),0.094
20,TTCTATGCTTGGGTTCTAACCTGTTGCGT (site AAGCGCTCTCA),0.0654
